In patent publication US4401660A, “Ester derivatives of 5-O-mycaminosyl tylonolide and method of using same” (Eli Lilly and Company, priority 1981, dated 1983):

What was measured:
Type in all cases: cell-based
Design in all cases: unit not given here
[1] = test system: Haemophilus influenzae R252; experiment: MIC, standard agar-dilution assay (Table II); settings: Haemophilus influenzae R252, ampicillin-resistant strain
Description: (§1) The MIC's in Table II were determined by standard agar-dilution assays. The MIC's in Table III were obtained using a conventional broth-dilution microtiter test.

[2] = test system: Streptococcus Group D X66; experiment: MIC, standard agar-dilution assay (Table II)
Description: as §1

[3] = test system: Staphylococcus aureus X400; experiment: MIC, standard agar-dilution assay (Table II); settings: Staphylococcus aureus X400, methicillin-resistant strain
Description: as §1

[4] = test system: Staphylococcus epidermidis EPI1; experiment: MIC, standard agar-dilution assay (Table II)
Description: as §1

[5] = test system: Streptococcus Group D 9960; experiment: MIC, standard agar-dilution assay (Table II)
Description: as §1

[6] = test system: Staphylococcus aureus X1.1; experiment: MIC, standard agar-dilution assay (Table II)
Description: as §1

[7] = test system: Staphylococcus aureus V41; experiment: MIC, standard agar-dilution assay (Table II); settings: Staphylococcus aureus V41, penicillin-resistant strain
Description: as §1

[8] = test system: Streptococcus pneumoniae Park I; experiment: MIC, standard agar-dilution assay (Table II)
Description: as §1

[9] = test system: Staphylococcus aureus S13E; experiment: MIC, standard agar-dilution assay (Table II)
Description: as §1

[10] = test system: Streptococcus pyogenes C203; experiment: MIC, standard agar-dilution assay (Table II)
Description: as §1

[11] = test system: Staphylococcus epidermidis EPI2; experiment: MIC, standard agar-dilution assay (Table II)
Description: as §1

[12] = test system: Haemophilus influenzae Holt; experiment: MIC, standard agar-dilution assay (Table II); settings: ampicillin-sensitive strain
Description: as §1

[13] = test system: Staphylococcus aureus; experiment: MIC, broth-dilution microtiter test (Table III)
Description: as §1

[14] = test system: Pasteurella multocida 60A; experiment: MIC, broth-dilution microtiter test (Table III); settings: avian isolate
Description: as §1

[15] = test system: Pasteurella multocida 22A; experiment: MIC, broth-dilution microtiter test (Table III)
Description: as §1

[16] = test system: Pasteurella multocida 40G; experiment: MIC, broth-dilution microtiter test (Table III)
Description: as §1

[17] = test system: Pasteurella haemolytica 22C; experiment: MIC, broth-dilution microtiter test (Table III)
Description: as §1

[18] = test system: Pasteurella multocida 17E; experiment: MIC, broth-dilution microtiter test (Table III); settings: bovine isolate
Description: as §1

[19] = test system: Pasteurella haemolytica 23C; experiment: MIC, broth-dilution microtiter test (Table III)
Description: as §1

[20] = test system: Pasteurella haemolytica 41D; experiment: MIC, broth-dilution microtiter test (Table III)
Description: as §1

[21] = test system: Mycoplasma synoviae; experiment: MIC, broth-dilution microtiter test (Table III)
Description: as §1

[22] = test system: Pasteurella multocida 68C; experiment: MIC, broth-dilution microtiter test (Table III)
Description: as §1

[23] = test system: Streptococcus sp. 80; experiment: MIC, broth-dilution microtiter test (Table III)
Description: as §1

[24] = test system: Mycoplasma gallisepticum; experiment: MIC, broth-dilution microtiter test (Table III)
Description: as §1

[25] = test system: Mycoplasma hyorhinis; experiment: MIC, broth-dilution microtiter test (Table III)
Description: as §1

SMILES	minimal inhibitory concentration (MIC) [1]	minimal inhibitory concentration (MIC) [2]	minimal inhibitory concentration (MIC) [3]	minimal inhibitory concentration (MIC) [4]	minimal inhibitory concentration (MIC) [5]	minimal inhibitory concentration (MIC) [6]	minimal inhibitory concentration (MIC) [7]	minimal inhibitory concentration (MIC) [8]	minimal inhibitory concentration (MIC) [9]	minimal inhibitory concentration (MIC) [10]	minimal inhibitory concentration (MIC) [11]	minimal inhibitory concentration (MIC) [13]	minimal inhibitory concentration (MIC) [14]	minimal inhibitory concentration (MIC) [15]	minimal inhibitory concentration (MIC) [16]	minimal inhibitory concentration (MIC) [17]	minimal inhibitory concentration (MIC) [18]	minimal inhibitory concentration (MIC) [19]	minimal inhibitory concentration (MIC) [20]	minimal inhibitory concentration (MIC) [21]	other results
CCC1OC(=O)CC(O)C(C)C(OC2OC(C)C(O)C(N(C)C)C2OC(=O)Cc2ccccc2)C(CC=O)CC(C)C(=O)C=CC(C)=CC1COC(=O)Cc1ccccc1 (stereo not shown) [Compound 53, 2',23-Di-O-Phenylacetyl-OMT]	1	0.25	0.25	0.25	0.25	0.25	0.25	0.03	0.25	0.06	0.25	0.195	1.56	1.56	1.56	3.12	1.56	3.12	3.12	< 0.05	minimal inhibitory concentration (MIC) [12]: 1; minimal inhibitory concentration (MIC) [22]: 0.78; minimal inhibitory concentration (MIC) [23]: < 0.05; minimal inhibitory concentration (MIC) [24]: < 0.05; minimal inhibitory concentration (MIC) [25]: 3.12
CCC1OC(=O)CC(O)C(C)C(OC2OC(C)C(O)C(N(C)C)C2OC(C)=O)C(CC=O)CC(C)C(=O)C=CC(C)=CC1COC(=O)Cc1cc(OC)ccc1OC (stereo not shown) [Compound 62]	2	0.125	0.25	0.125	0.125	0.25	0.25	0.03	0.125	0.06	0.25	0.78	12.5	3.12	3.12	6.25	3.12	6.25	3.12	< 0.05	minimal inhibitory concentration (MIC) [12]: 1; minimal inhibitory concentration (MIC) [22]: 6.25; minimal inhibitory concentration (MIC) [23]: 0.195; minimal inhibitory concentration (MIC) [24]: < 0.05; minimal inhibitory concentration (MIC) [25]: 0.78
CCC1OC(=O)CC(O)C(C)C(OC2OC(C)C(O)C(N(C)C)C2O)C(CC=O)CC(C)C(=O)C=CC(C)=CC1COC(=O)C12CC3CC(CC(C3)C1)C2 (stereo not shown) [Compound 70]	16	2	1	1	2	1	1	0.5	1	1	1	6.25	25	12.5	12.5	25	12.5	25	25	0.39	minimal inhibitory concentration (MIC) [12]: 8; minimal inhibitory concentration (MIC) [22]: 12.5; minimal inhibitory concentration (MIC) [23]: 1.56; minimal inhibitory concentration (MIC) [24]: 1.56; minimal inhibitory concentration (MIC) [25]: 3.12
CCC(=O)OC1C(OC2C(CC=O)CC(C)C(=O)C=CC(C)=CC(CO)C(CC)OC(=O)CC(O)C2C)OC(C)C(O)C1N(C)C (stereo not shown) [Compound 2, 2'-O-Propionyl-OMT]	4	2	4	1	2	2	4	8	2	0.5	1	3.12	1.56	3.12	6.25	12.5	3.12	12.5	12.5	0.78	minimal inhibitory concentration (MIC) [12]: 4; minimal inhibitory concentration (MIC) [22]: 3.12; minimal inhibitory concentration (MIC) [23]: < 0.78; minimal inhibitory concentration (MIC) [24]: 0.39; minimal inhibitory concentration (MIC) [25]: 3.12
CCC1OC(=O)CC(O)C(C)C(OC2OC(C)C(O)C(N(C)C)C2OC(C)=O)C(CC=O)CC(C)C(=O)C=CC(C)=CC1COC(=O)C(Cl)(Cl)Cl (stereo not shown) [Compound 77]	1	1	2	1	1	1	2	0.25	1	0.25	2	1.56	3.12	50	25	12.5	3.12	12.5	12.5	0.78	minimal inhibitory concentration (MIC) [22]: 25; minimal inhibitory concentration (MIC) [23]: 0.78; minimal inhibitory concentration (MIC) [24]: 0.78; minimal inhibitory concentration (MIC) [25]: 3.12
